Experimental data: patent publication US7060725B2, “Substituted sulfamate anticonvulsant derivatives” (Janssen Pharmaceutica N.V., priority 2002, dated 2006)

Experiments:
[1] = system: maximal electroshock seizure (MES-induced seizure spread); experiment: Maximal electroshock seizure (MES) test, rat; format: in vivo, rats
Description: Anticonvulsant activity was determined using the standard MES model for generalized tonic-clonic seizures (Swinyard E A, Woodhead J H, White H S, Franklin M R, In: […], Meldrum […], Dreifuss F E eds. Antiepileptic drugs. New York: Raven Press, 1989:85-102). An electric stimulus of 0.2 sec duration, 60 Hz, 50 mA in mice, 150 mA in rats, was delivered via corneal electrodes primed with an electrolyte solution containing an anesthetic agent (0.5% tetracaine hydrochloride in 0.9% saline). Mice or rats were randomly selected into control and test groups. The animals were dosed with vehicle or test compound, at varying concentrations. Mice were subjected to the electrical stimulus at 30 minutes and 4 hours following administration of test compound. […] Abolition of the hind limb tonic extensor component was an indication of the test compound's ability to inhibit MES-induced seizure spread. […] A probit analysis (Finney D J. Probit Analysis. Cambridge, England: Cambridge University Press, 1971) was used to calculate the ED50. Following the rat procedure described above, representative compounds of the instant invention were tested for biological activity in the rat, with results as listed in Table 6 and 7. Rat activity is listed as number of rats active/total number of rats tested @ time after administration of the test compound.

[2] = system: maximal electroshock seizure (MES-induced seizure spread); experiment: Maximal electroshock seizure (MES) test, mouse; format: in vivo, mice
Description: Anticonvulsant activity was determined using the standard MES model for generalized tonic-clonic seizures (Swinyard E A, Woodhead J H, White H S, Franklin M R, In: Levy R H, Mattson R H, Meldrum B S, Penry J K, Dreifuss F E eds. Antiepileptic drugs. New York: Raven Press, 1989:85–102).
An electric stimulus of 0.2 sec duration, 60 Hz, 50 mA in mice, 150 mA in rats, was delivered via corneal electrodes primed with an electrolyte solution containing an anesthetic agent (0.5% tetracaine hydrochloride in 0.9% saline).
Mice or rats were randomly selected into control and test groups. The animals were dosed with vehicle or test compound, at varying concentrations. […] Rats were subjected to electrical stimulus at time intervals between 15 minutes and 4 hours following administration of test compound. Abolition of the hind limb tonic extensor component was an indication of the test compound's ability to inhibit MES-induced seizure spread.
The ED50 (the calculated dose required to block the hindlimb tonic-extensor component of the maximal electroshock seizure in 50% of the animals tested) was calculated. A probit analysis (Finney D J. Probit Analysis. Cambridge, England: Cambridge University Press, 1971) was used to calculate the ED50.
Following the mouse procedure described above, representative compounds of the instant invention were tested for biological activity in the mouse, with results as listed in Table 5. Mouse activity is listed as number of mice active/total number of mice tested @ time after administration of the test compound.

[3] = 300 mg/kg, @ 0.5 hrs after administration
[4] = 300 mg/kg, @ 4 hrs after administration
[5] = 100 mg/kg, @ 4 hrs after administration
[6] = 100 mg/kg, @ 0.5 hrs after administration

C=CCNS(=O)(=O)OC[C@@]12OC[C@H]3OC(C)(C)OC3[C@@H]1OC(C)(C)O2 (stereo partly drawn) [Compound 2, N-allyl-2,3:4,5-bis-O-(1-methylethylidene)-β-D-fructopyranose sulfamate]
ED50 ([1]; @ 2 hrs): 11.89 @ 2 hrs m/k | Rat Activity (oral) (number of rats active/total number of rats tested) ([1]; 8 mg/kg, @ 2 hrs): 3/4 @ 2 hrs | Rat Activity (oral) (number of rats active/total number of rats tested) ([1]; 8 mg/kg, @ 4 hrs): 2/4 @ 4 hrs | Rat Activity (oral) (number of rats active/total number of rats tested) ([1]; 8 mg/kg, @ 6 hrs): 1/4 @ 6 hrs | Rat Activity (oral) (number of rats active/total number of rats tested) ([1]; 8 mg/kg, @ 8 hrs): 1/4 @ 8 hrs | Rat Activity (oral) (number of rats active/total number of rats tested) ([1]; 20 mg/kg, @ 0.5 hrs): 1/4 @ 0.5 hrs | Rat Activity (oral) (number of rats active/total number of rats tested) ([1]; 20 mg/kg, @ 2 hrs): 2/2 @ 2 hrs | Rat Activity (oral) (number of rats active/total number of rats tested) ([1]; 20 mg/kg, @ 4 hrs): 1/2 @ 4 hrs | Rat Activity (oral) (number of rats active/total number of rats tested) ([1]; 20 mg/kg, @ 6 hrs): 1/2 @ 6 hrs | Rat Activity (oral) (number of rats active/total number of rats tested) ([1]; 200 mg/kg, @ 1 hr): 3/8 @ 1 hr | Rat Activity (oral) (number of rats active/total number of rats tested) ([1]; 200 mg/kg, @ 2 hrs): 4/8 @ 2 hrs | Rat Activity (oral) (number of rats active/total number of rats tested) ([1]; 200 mg/kg, @ 4 hrs): 2/8 @ 4 hrs | Rat Activity (oral) (number of rats active/total number of rats tested) ([1]; 200 mg/kg, @ 6 hrs): 1/8 @ 6 hrs

CC1(C)OC2COC3(COS(=O)(=O)NCCBr)OC(C)(C)OC3C2O1 (stereo not drawn) [Compound 3]
Rat Activity (oral) (number of rats active/total number of rats tested) ([1]; 30 mg/kg, @ 1 hr): 1/4 @ 1 hr | Rat Activity (oral) (number of rats active/total number of rats tested) ([1]; 30 mg/kg, @ 2 hrs): 2/4 @ 2 hrs | Mouse Activity ([2]; dosage 30, 100, 300 mg/kg): No Activity

CCOC(=O)CCNS(=O)(=O)OCC12OCC3OC(C)(C)OC3C1OC(C)(C)O2 (stereo not drawn) [Compound 4]
Rat Activity (oral) (number of rats active/total number of rats tested) ([1]; 30 mg/kg, @ 1 hr): 1/4 @ 1 hr | Mouse Activity ([2]; dosage 30, 100, 300 mg/kg): No Activity

COC(=O)CNS(=O)(=O)OCC12OCC3OC(C)(C)OC3C1OC(C)(C)O2 (stereo not drawn) [Compound 5]
ED50 ([1]; @ 2 hrs): >80 @ 2 hrs m/k | Rat Activity (oral) (number of rats active/total number of rats tested) ([1]; 30 mg/kg, @ 2 hrs): 3/4 @ 2 hrs | Rat Activity (oral) (number of rats active/total number of rats tested) ([1]; 30 mg/kg, @ 4 hrs): 1/4 @ 4 hrs | Mouse Activity ([2]; dosage 30, 100, 300 mg/kg): No activity

CC1(C)OC2COC3(COS(=O)(=O)N[Si](c4ccccc4)(c4ccccc4)c4ccccc4)OC(C)(C)OC3C2O1 (stereo not drawn) [Compound 6]
Mouse Activity ([2]; dosage 30, 100, 300 mg/kg): No activity

COC(=O)CCCNS(=O)(=O)OCC12OCC3OC(C)(C)OC3C1OC(C)(C)O2 (stereo not drawn) [Compound 8]
Mouse Activity (number of mice active/total number of mice tested) [2, 3]: 1/1 @ 0.5 hrs | Mouse Activity ([2]; dosage 30, 100 mg/kg): No activity

CC1(C)OC2[C@@H](CO[C@@]3(COS(=O)(=O)NO)OC(C)(C)O[C@@H]23)O1 (stereo partly drawn) [Compound 9, N-hydroxy-2,3:4,5-bis-O-(1-methylethylidene)-β-D-fructopyranose sulfamate]
ED50 ([1]; @ 4 hrs): 68.72 @ 4 hrs m/k | Rat Activity (oral) (number of rats active/total number of rats tested) ([1]; 30 mg/kg, @ 1 hr): 1/4 @ 1 hr | Rat Activity (oral) (number of rats active/total number of rats tested) ([1]; 30 mg/kg, @ 2 hrs): 2/4 @ 2 hrs | Rat Activity (oral) (number of rats active/total number of rats tested) ([1]; 30 mg/kg, @ 4 hrs): 1/4 @ 4 hrs | Mouse Activity (number of mice active/total number of mice tested) [2, 4]: 1/1 @ 4 hrs | Mouse Activity ([2]; dosage 30 mg/kg): No activity

CONS(=O)(=O)OCC12OCC3OC(C)(C)OC3C1OC(C)(C)O2 (stereo not drawn) [Compound 10]
Mouse Activity (number of mice active/total number of mice tested) [2, 3]: 1/1 @ 0.5 hrs | Mouse Activity (number of mice active/total number of mice tested) [2, 4]: 1/1 @ 4 hrs | Mouse Activity ([2]; dosage 30, 100 mg/kg): No activity

CON(C)S(=O)(=O)OCC12OCC3OC(C)(C)OC3C1OC(C)(C)O2 (stereo not drawn) [Compound 11]
ED50 ([1]; @ 4 hrs): 26.75 @ 4 hrs m/k | Rat Activity (oral) (number of rats active/total number of rats tested) ([1]; 30 mg/kg, @ 0.5 hrs): 2/3 @ 0.5 hrs | Rat Activity (oral) (number of rats active/total number of rats tested) ([1]; 30 mg/kg, @ 2 hrs): 2/3 @ 2 hrs | Rat Activity (oral) (number of rats active/total number of rats tested) ([1]; 30 mg/kg, @ 4 hrs): 2/3 @ 4 hrs | Mouse Activity ([2]; dosage 30, 100, 300 mg/kg): No activity

CN(O)S(=O)(=O)OCC12OCC3OC(C)(C)OC3C1OC(C)(C)O2 (stereo not drawn) [Compound 12]
Rat Activity (oral) (number of rats active/total number of rats tested) ([1]; 15 mg/kg, @ 1 hr): 1/4 @ 1 hr | Mouse Activity ([2]; dosage 30, 100, 300 mg/kg): No activity

CC1(C)OC2COC3(COS(=O)(=O)NC(=O)O[Si](c4ccccc4)(c4ccccc4)c4ccccc4)OC(C)(C)OC3C2O1 (stereo not drawn) [Compound 13]
Rat Activity (oral) (number of rats active/total number of rats tested) ([1]; 30 mg/kg, @ 0.5 hrs): 1/4 @ 0.5 hrs | Rat Activity (oral) (number of rats active/total number of rats tested) ([1]; 30 mg/kg, @ 1 hr): 1/4 @ 1 hr | Mouse Activity ([2]; dosage 30, 100, 300 mg/kg): No activity

CC(C)(C)OC(=O)NS(=O)(=O)OC[C@@]12OC[C@H]3OC(C)(C)OC3[C@@H]1OC(C)(C)O2 (stereo partly drawn) [Compound 14, N-t-butoxycarbonyl-2,3:4,5-bis-O-(1-methylethylidene)-β-D-fructopyranose sulfamate]
Rat Activity (oral) (number of rats active/total number of rats tested) ([1]; 30 mg/kg, @ 2 hrs): 3/4 @ 2 hrs | Rat Activity (oral) (number of rats active/total number of rats tested) ([1]; 30 mg/kg, @ 4 hrs): 4/4 @ 4 hrs | Mouse Activity ([2]; dosage 30, 100, 300 mg/kg): No activity

CC1(C)OC2[C@@H](CO[C@@]3(COS(=O)(=O)NC(=O)OCc4ccccc4)OC(C)(C)O[C@@H]23)O1 (stereo partly drawn) [Compound 15, N-benzyloxycarbonyl-2,3:4,5-bis-O-(1-methylethylidene)-β-D-fructopyranose sulfamate]
Mouse Activity (number of mice active/total number of mice tested) ([2]; 100 mg/kg, @ 1 hr after administration): 3/3 @ 1 hr | Mouse Activity (number of mice active/total number of mice tested) [2, 5]: 2/3 @ 4 hrs | Mouse Activity (number of mice active/total number of mice tested) [2, 3]: 1/1 @ 0.5 hrs | Mouse Activity (number of mice active/total number of mice tested) [2, 4]: 1/1 @ 4 hrs | Mouse Activity ([2]; dosage 30 mg/kg): No activity

CC1(C)O[C@@H]2[C@@H](CO[C@@]3(COS(=O)(=O)[N-]C(=O)OCc4ccccc4)OC(C)(C)O[C@@H]23)O1.[Na+] [Compound 17, N-(benzyloxy-carbonyl)-2,3:4,5-bis-O-(1-methylethylidene)-β-D-fructopyranose sulfamate sodium salt]
ED50 ([1]; @ 4 hrs): 10.37 @ 4 hrs, m/k | ED50 ([1]; @ 6 hrs): 3.26 @ 6 hrs m/k | Rat Activity (oral) (number of rats active/total number of rats tested) ([1]; 30 mg/kg, @ 0.25 hrs): 1/4 @ 0.25 hrs | Rat Activity (oral) (number of rats active/total number of rats tested) ([1]; 30 mg/kg, @ 0.5 hrs): 2/4 @ 0.5 hrs | Rat Activity (oral) (number of rats active/total number of rats tested) ([1]; 30 mg/kg, @ 1 hr): 1/4 @ 1 hr | Rat Activity (oral) (number of rats active/total number of rats tested) ([1]; 30 mg/kg, @ 2 hrs): 4/4 @ 2 hrs | Rat Activity (oral) (number of rats active/total number of rats tested) ([1]; 30 mg/kg, @ 4 hrs): 4/4 @ 4 hrs

CC(=O)[N-]S(=O)(=O)OC[C@@]12OC[C@H]3OC(C)(C)OC3[C@@H]1OC(C)(C)O2.[Na+] (stereo partly drawn) [Compound 18, N-acetyl-2,3:4,5-bis-O-(1-methylethylidene)-β-D-fructopyranose sulfamate sodium salt]
Rat Activity (oral) (number of rats active/total number of rats tested) ([1]; 30 mg/kg, @ 0.25 hrs): 1/4 @ 0.25 hrs | Rat Activity (oral) (number of rats active/total number of rats tested) ([1]; 30 mg/kg, @ 0.5 hrs): 1/4 @ 0.5 hrs | Rat Activity (oral) (number of rats active/total number of rats tested) ([1]; 30 mg/kg, @ 2 hrs): 1/4 @ 2 hrs | Rat Activity (oral) (number of rats active/total number of rats tested) ([1]; 30 mg/kg, @ 4 hrs): 3/4 @ 4 hrs | Mouse Activity (number of mice active/total number of mice tested) [2, 6]: 1/3 @ 0.5 hrs | Mouse Activity (number of mice active/total number of mice tested) [2, 5]: 2/3 @ 4 hrs | Mouse Activity (number of mice active/total number of mice tested) [2, 3]: 1/1 @ 0.5 hrs | Mouse Activity (number of mice active/total number of mice tested) [2, 4]: 1/1 @ 4 hrs | Mouse Activity ([2]; dosage 30 mg/kg): No activity

CCC(=O)[N-]S(=O)(=O)OCC12OCC3OC(C)(C)OC3C1OC(C)(C)O2.[Na+] (stereo not drawn) [Compound 19]
ED50 ([1]; @ 4 hrs): 11.22 @ 4 hrs m/k | Rat Activity (oral) (number of rats active/total number of rats tested) ([1]; 30 mg/kg, @ 0.25 hrs): 1/4 @ 0.25 hrs | Rat Activity (oral) (number of rats active/total number of rats tested) ([1]; 30 mg/kg, @ 0.5 hrs): 0/4 @ 0.5 hrs | Rat Activity (oral) (number of rats active/total number of rats tested) ([1]; 30 mg/kg, @ 1 hr): 1/4 @ 1 hr | Rat Activity (oral) (number of rats active/total number of rats tested) ([1]; 30 mg/kg, @ 2 hrs): 4/4 @ 2 hrs | Rat Activity (oral) (number of rats active/total number of rats tested) ([1]; 30 mg/kg, @ 4 hrs): 4/4 @ 4 hrs | Mouse Activity (number of mice active/total number of mice tested) [2, 6]: 0/3 @ 0.5 hrs | Mouse Activity (number of mice active/total number of mice tested) [2, 5]: 3/3 @ 4 hrs | Mouse Activity (number of mice active/total number of mice tested) [2, 3]: 1/1 @ 0.5 hrs | Mouse Activity (number of mice active/total number of mice tested) [2, 4]: 1/1 @ 4 hrs | Mouse Activity ([2]; dosage 30 mg/kg): No activity

CC1(C)OC2COC3(COS(=O)(=O)NCCC(=O)O)OC(C)(C)OC3C2O1 (stereo not drawn) [Compound 35]
Mouse Activity (number of mice active/total number of mice tested) [2, 3]: 1/1 @ 0.5 hrs | Mouse Activity ([2]; dosage 30, 100 mg/kg): No Activity
